In ChEMBL document CHEMBL1146709, “Tetrahydroisoquinoline based sulfonamide hydroxamates as potent matrix metalloproteinase inhibitors” (Bioorg Med Chem Lett, 2004):

What was measured:
[1] = molecular target: Matrix metalloproteinase-15 (Homo sapiens, UniProt P51511); assay: Inhibition of matrix metalloprotease-15 (MMP-15)
[2] = molecular target: Macrophage metalloelastase (Homo sapiens, UniProt P39900); assay: Inhibition of matrix metalloprotease-12 (MMP-12)
[3] = molecular target: Matrix metalloproteinase-16 (Homo sapiens, UniProt P51512); assay: Inhibition of matrix metalloprotease-16 (MMP-16)
[4] = molecular target: 72 kDa type IV collagenase (Homo sapiens, UniProt P08253); assay: Inhibition of matrix metalloprotease-2 (MMP-2)
Interstitial collagenase [5] = molecular target: T1, Interstitial collagenase (Homo sapiens, UniProt P03956); assay: Inhibition of matrix metalloprotease-1 (MMP-1)
T1 sequence (P03956 whole entry): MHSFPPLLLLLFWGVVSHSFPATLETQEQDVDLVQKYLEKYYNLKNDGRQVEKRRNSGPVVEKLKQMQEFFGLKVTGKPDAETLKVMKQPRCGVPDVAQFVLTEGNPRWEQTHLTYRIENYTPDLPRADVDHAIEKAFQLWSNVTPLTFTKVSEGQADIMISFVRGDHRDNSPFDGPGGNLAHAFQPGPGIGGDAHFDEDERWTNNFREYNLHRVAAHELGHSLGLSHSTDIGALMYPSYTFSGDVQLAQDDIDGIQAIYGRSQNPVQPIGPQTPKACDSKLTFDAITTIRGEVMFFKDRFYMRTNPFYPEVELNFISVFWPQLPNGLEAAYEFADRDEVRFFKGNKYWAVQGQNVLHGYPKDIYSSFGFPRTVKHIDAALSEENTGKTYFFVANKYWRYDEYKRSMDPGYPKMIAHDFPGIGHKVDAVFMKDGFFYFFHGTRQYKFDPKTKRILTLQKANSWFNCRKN

[6] = molecular target: T2, Matrix metalloproteinase-26 (Homo sapiens, UniProt Q9NRE1); assay: Inhibition of matrix metalloprotease-26 (MMP-26)
T2 sequence (Q9NRE1 whole entry): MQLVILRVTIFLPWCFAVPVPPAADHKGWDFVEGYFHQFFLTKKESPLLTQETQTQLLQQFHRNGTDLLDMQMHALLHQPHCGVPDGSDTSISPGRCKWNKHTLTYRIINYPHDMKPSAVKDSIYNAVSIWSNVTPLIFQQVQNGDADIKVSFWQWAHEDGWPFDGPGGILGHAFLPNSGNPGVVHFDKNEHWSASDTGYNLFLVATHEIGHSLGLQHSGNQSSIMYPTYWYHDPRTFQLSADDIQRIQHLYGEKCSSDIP

Matrilysin [7] = molecular target: T3, Matrilysin (Homo sapiens, UniProt P09237); assay: Inhibition of matrix metalloprotease-7 (MMP-7)
T3 sequence (P09237 whole entry): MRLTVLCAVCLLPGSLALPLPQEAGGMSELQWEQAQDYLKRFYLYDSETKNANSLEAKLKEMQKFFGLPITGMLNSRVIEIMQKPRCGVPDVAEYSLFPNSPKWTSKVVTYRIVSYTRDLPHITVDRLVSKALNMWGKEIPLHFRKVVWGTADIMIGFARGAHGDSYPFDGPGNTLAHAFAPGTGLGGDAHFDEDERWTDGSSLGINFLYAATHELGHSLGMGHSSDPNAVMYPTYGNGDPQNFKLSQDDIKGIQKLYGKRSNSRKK

[8] = molecular target: Matrix metalloproteinase-14 (Homo sapiens, UniProt P50281); assay: Inhibition of matrix metalloprotease-14 (MMP-14)
[9] = molecular target: Matrix metalloproteinase-9 (Homo sapiens, UniProt P14780); assay: Inhibition of matrix metalloprotease-9 (MMP-9)
Matrilysin [10] = molecular target: T3, Matrilysin
Interstitial collagenase [11] = molecular target: T1, Interstitial collagenase
[12] = molecular target: T2, Matrix metalloproteinase-26; assay: Inhibition of matrix metalloprotease-26 (MMP-26) (inactive up to 50 uM)

Sequence of Macrophage metalloelastase (P39900 whole entry): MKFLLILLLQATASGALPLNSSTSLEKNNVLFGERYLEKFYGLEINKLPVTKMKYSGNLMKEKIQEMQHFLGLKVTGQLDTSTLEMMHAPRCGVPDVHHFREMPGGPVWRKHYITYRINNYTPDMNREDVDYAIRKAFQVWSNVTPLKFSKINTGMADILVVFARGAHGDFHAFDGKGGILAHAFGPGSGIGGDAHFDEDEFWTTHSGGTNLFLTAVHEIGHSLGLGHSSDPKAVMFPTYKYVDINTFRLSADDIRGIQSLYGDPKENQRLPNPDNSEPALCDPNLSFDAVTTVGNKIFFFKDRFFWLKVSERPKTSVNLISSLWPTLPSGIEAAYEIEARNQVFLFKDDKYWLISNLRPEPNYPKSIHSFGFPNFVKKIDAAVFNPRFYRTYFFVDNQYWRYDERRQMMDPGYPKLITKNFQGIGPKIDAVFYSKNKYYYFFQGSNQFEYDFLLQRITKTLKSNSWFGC
Sequence of Matrix metalloproteinase-15 (P51511 whole entry): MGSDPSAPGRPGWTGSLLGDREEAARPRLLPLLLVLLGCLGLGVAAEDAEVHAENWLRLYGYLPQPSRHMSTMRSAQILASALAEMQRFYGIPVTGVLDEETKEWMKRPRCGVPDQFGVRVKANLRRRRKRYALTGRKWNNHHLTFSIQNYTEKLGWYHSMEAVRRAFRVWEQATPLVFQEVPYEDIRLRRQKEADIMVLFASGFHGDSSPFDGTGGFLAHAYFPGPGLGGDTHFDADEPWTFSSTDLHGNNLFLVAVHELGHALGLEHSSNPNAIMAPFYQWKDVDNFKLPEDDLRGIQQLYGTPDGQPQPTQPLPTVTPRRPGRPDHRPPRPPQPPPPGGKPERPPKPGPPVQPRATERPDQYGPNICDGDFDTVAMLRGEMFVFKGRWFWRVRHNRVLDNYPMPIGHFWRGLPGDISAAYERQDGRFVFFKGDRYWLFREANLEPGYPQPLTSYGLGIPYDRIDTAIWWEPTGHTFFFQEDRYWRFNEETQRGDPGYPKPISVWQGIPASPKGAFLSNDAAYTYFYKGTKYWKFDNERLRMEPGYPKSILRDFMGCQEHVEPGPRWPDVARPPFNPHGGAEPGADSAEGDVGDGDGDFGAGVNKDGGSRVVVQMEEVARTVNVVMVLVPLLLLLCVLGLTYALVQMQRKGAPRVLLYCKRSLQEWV
Sequence of Matrix metalloproteinase-9 (P14780 whole entry): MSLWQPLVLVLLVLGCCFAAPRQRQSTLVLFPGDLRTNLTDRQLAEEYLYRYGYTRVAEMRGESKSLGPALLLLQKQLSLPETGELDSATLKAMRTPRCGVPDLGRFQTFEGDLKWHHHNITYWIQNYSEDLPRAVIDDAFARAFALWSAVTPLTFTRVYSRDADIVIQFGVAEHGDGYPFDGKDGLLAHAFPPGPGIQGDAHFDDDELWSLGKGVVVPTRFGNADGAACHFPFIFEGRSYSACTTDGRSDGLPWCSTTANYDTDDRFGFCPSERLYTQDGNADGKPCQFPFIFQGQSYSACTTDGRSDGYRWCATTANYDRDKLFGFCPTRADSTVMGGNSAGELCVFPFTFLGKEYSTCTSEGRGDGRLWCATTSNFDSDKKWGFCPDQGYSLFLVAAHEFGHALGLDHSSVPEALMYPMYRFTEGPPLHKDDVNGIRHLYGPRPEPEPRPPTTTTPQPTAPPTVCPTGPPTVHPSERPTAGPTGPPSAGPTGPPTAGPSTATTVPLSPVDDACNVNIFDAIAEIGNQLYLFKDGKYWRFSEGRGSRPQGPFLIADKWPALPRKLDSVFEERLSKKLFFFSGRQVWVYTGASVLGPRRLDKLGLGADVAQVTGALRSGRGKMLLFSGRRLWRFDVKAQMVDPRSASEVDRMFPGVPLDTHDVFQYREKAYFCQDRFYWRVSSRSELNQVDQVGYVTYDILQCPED
Sequence of 72 kDa type IV collagenase (P08253 whole entry): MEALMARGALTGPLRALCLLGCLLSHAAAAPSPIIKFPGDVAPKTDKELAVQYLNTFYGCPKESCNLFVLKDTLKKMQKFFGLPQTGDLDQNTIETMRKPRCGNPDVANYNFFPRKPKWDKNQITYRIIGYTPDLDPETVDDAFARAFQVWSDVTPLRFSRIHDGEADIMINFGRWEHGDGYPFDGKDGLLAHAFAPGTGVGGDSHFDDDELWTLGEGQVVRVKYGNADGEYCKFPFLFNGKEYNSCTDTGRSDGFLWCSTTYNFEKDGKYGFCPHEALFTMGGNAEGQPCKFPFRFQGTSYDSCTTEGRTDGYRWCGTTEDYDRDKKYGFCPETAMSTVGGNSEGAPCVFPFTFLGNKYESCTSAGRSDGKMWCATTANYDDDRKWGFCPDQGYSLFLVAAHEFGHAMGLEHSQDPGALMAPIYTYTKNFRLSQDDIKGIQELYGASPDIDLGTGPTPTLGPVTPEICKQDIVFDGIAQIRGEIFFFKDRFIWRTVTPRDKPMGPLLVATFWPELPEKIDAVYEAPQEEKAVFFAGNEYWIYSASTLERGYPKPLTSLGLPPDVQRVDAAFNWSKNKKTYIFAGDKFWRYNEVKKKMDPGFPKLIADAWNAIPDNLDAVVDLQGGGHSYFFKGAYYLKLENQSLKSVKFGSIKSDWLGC
Sequence of Matrix metalloproteinase-16 (P51512 whole entry): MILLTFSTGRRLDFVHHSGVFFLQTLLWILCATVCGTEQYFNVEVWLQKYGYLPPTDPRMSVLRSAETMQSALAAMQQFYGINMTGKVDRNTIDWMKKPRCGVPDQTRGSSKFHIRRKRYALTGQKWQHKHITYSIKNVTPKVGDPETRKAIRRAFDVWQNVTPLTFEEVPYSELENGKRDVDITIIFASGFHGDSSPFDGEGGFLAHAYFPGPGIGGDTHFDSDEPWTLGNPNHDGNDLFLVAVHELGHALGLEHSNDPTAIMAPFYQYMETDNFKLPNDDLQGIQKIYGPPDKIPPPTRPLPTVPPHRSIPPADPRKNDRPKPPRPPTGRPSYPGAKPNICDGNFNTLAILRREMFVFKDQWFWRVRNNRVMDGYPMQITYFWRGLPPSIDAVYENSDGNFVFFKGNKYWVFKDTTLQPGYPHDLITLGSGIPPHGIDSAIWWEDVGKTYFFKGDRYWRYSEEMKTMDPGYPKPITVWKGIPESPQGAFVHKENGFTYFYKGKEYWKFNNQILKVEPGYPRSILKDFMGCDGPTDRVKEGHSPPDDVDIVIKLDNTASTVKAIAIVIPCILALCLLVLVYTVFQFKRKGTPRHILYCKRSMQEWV

SMILES: Cc1ccc(S(=O)(=O)N2CCc3cc(O)ccc3C2C(=O)NO)cc1 (configuration not stated)
- IC50 [1]: 0.019 µM
- IC50 [2]: 0.029 µM
- IC50 [3]: 0.021 µM
- IC50 [4]: 0.018 µM
- IC50 (Interstitial collagenase [5]): 0.152 µM
- IC50 [6]: 0.097 µM
- IC50 (Matrilysin [7]): 10.5 µM
- IC50 [8]: 0.052 µM
- IC50 [9]: 0.04 µM

SMILES: COc1ccc(S(=O)(=O)N2CCc3cc(O)c(OC)cc3C2C(=O)NO)cc1 (configuration not stated)
- IC50 [1]: 0.006 µM
- IC50 [2]: 0.02 µM
- IC50 [3]: 0.016 µM
- IC50 [4]: 0.026 µM
- IC50 (Interstitial collagenase [5]): 0.123 µM
- IC50 [6]: 0.086 µM
- IC50 (Matrilysin [7]): 3.19 µM
- IC50 [8]: 0.068 µM
- IC50 [9]: 0.046 µM

SMILES: COc1ccc(S(=O)(=O)N2CCc3cc(OCc4ccccc4)ccc3C2C(=O)NO)cc1 (configuration not stated)
- IC50 [1]: 0.004 µM
- IC50 [2]: 0.057 µM
- IC50 [3]: 0.022 µM
- IC50 [4]: 0.016 µM
- IC50 (Interstitial collagenase [5]): 0.088 µM
- IC50 [6]: 0.744 µM
- IC50 (Matrilysin [7]): 2.42 µM
- IC50 [8]: 0.034 µM
- IC50 [9]: 0.03 µM

SMILES: O=C(NO)C1c2ccc(O)cc2CCN1S(=O)(=O)c1ccccc1 (configuration not stated)
- IC50 [1]: 0.218 µM
- IC50 [2]: 0.421 µM
- IC50 [3]: 0.184 µM
- IC50 [4]: 0.43 µM
- IC50 (Interstitial collagenase [5]): 6.32 µM
- IC50 [6]: 0.858 µM
- IC50 [8]: 1.1 µM
- IC50 [9]: 0.335 µM
- IC50 (Matrilysin [10]): Not Active

SMILES: O=C(NO)C1c2ccc(O)cc2CCN1S(=O)(=O)c1ccc([N+](=O)[O-])cc1 (configuration not stated)
- IC50 [1]: 0.126 µM
- IC50 [2]: 0.059 µM
- IC50 [3]: 0.177 µM
- IC50 [4]: 0.076 µM
- IC50 (Interstitial collagenase [5]): 0.041 µM
- IC50 [6]: 0.791 µM
- IC50 (Matrilysin [7]): 21.4 µM
- IC50 [8]: 0.521 µM
- IC50 [9]: 0.258 µM

SMILES: O=C(NO)C1c2ccc(O)cc2CCN1S(=O)(=O)c1cc(Cl)ccc1Cl (configuration not stated)
- IC50 [1]: 1.79 µM
- IC50 [2]: 0.17 µM
- IC50 [3]: 1.84 µM
- IC50 [4]: 0.853 µM
- IC50 [6]: 7.9 µM
- IC50 (Interstitial collagenase [11]): Not Active
- IC50 (Matrilysin [7]): 21.4 µM
- IC50 [8]: 4.61 µM
- IC50 [9]: 1.88 µM

SMILES: CNC(=O)[C@H](Cc1c[nH]c2ccccc12)NC(=O)[C@@H](CC(=O)NO)CC(C)C [ILOMASTAT]
- IC50 [2]: 0.013 µM
- IC50 [3]: 0.008 µM
- IC50 [6]: 0.017 µM
- IC50 [8]: 0.023 µM

SMILES: O=C(NO)C1c2ccc(OCc3ccccc3)cc2CCN1S(=O)(=O)c1cc(Cl)ccc1Cl (configuration not stated)
- IC50 [1]: 7.3 µM
- IC50 [2]: 0.931 µM
- IC50 [3]: 4.63 µM
- IC50 [4]: 1.1 µM
- IC50 [12]: Not Active
- IC50 (Interstitial collagenase [11]): Not Active
- IC50 [8]: 20.8 µM
- IC50 [9]: 3.12 µM
- IC50 (Matrilysin [10]): Not Active

SMILES: COc1ccc(S(=O)(=O)N2CCc3cc(O)ccc3C2C(=O)NO)cc1 (configuration not stated)
- IC50 [1]: 0.621 µM
- IC50 [2]: 7.69 µM
- IC50 [3]: 1.68 µM
- IC50 [4]: 0.724 µM
- IC50 (Interstitial collagenase [5]): 15 µM
- IC50 [6]: 7.51 µM
- IC50 [8]: 3.11 µM
- IC50 [9]: 4.1 µM
- IC50 (Matrilysin [10]): Not Active

SMILES: Nc1ccc(S(=O)(=O)N2CCc3cc(O)ccc3C2C(=O)NO)cc1 (configuration not stated)
- IC50 [1]: 0.385 µM
- IC50 [2]: 0.191 µM
- IC50 [3]: 0.202 µM
- IC50 [4]: 0.15 µM
- IC50 (Interstitial collagenase [5]): 13.2 µM
- IC50 [6]: 0.492 µM
- IC50 [8]: 0.835 µM
- IC50 [9]: 0.248 µM
- IC50 (Matrilysin [10]): Not Active

SMILES: Cc1ccc(S(=O)(=O)N2CCc3cc(OCc4ccccc4)ccc3C2C(=O)NO)cc1 (configuration not stated)
- IC50 [1]: 0.044 µM
- IC50 [2]: 0.072 µM
- IC50 [3]: 0.056 µM
- IC50 [4]: 0.033 µM
- IC50 (Interstitial collagenase [5]): 0.462 µM
- IC50 [6]: 2.05 µM
- IC50 (Matrilysin [7]): 12 µM
- IC50 [8]: 0.062 µM
- IC50 [9]: 0.13 µM

SMILES: COc1cc2c(cc1O)CCN(S(=O)(=O)c1ccccc1)C2C(=O)NO (configuration not stated)
- IC50 [1]: 0.029 µM
- IC50 [2]: 0.065 µM
- IC50 [3]: 0.04 µM
- IC50 [4]: 0.027 µM
- IC50 (Interstitial collagenase [5]): 0.595 µM
- IC50 [6]: 0.146 µM
- IC50 (Matrilysin [7]): 10.7 µM
- IC50 [8]: 0.867 µM
- IC50 [9]: 0.1 µM

SMILES: O=C(NO)C1c2ccc(OCc3ccccc3)cc2CCN1S(=O)(=O)c1ccccc1 (configuration not stated)
- IC50 [1]: 0.017 µM
- IC50 [2]: 0.057 µM
- IC50 [3]: 0.035 µM
- IC50 [4]: 0.024 µM
- IC50 (Interstitial collagenase [5]): 0.452 µM
- IC50 [6]: 1.45 µM
- IC50 (Matrilysin [7]): 7.14 µM
- IC50 [8]: 0.039 µM
- IC50 [9]: 0.035 µM
